From the supplement of paper PMC5908809

How the values were obtained:
NKL (IL-2 2.5 ng/mL) [1] = experiment: percent inhibition of viability; higher = more inhibition; conditions: 72 h
KAI3 (IL-2 2.5 ng/mL) [2] = experiment: as above; conditions: 72 h
IMC-1 (IL-2 20 ng/mL) [3] = experiment: as above; conditions: 72 h
KHYG-1 (IL-2 2.5 ng/mL) [4] = experiment: as above; conditions: 72 h
SNK-6 (IL-2 2.5 ng/mL) [5] = experiment: as above; conditions: 72 h
DERL-7 (IL-2 2.5 ng/mL) [6] = experiment: as above; conditions: 72 h
[7] = system: normal primary NK cells, pool 1 (3 donors) (IL-2 2.5 ng/mL); experiment: as above; conditions: 72 h
[8] = system: normal primary NK cells, pool 2 (3 donors) (IL-2 2.5 ng/mL); experiment: as above; conditions: 72 h
NK-YS (IL-2 2.5 ng/mL) [9] = experiment: as above; conditions: 72 h
YT (IL-2 2.5 ng/mL) [10] = experiment: as above; conditions: 72 h
[11] = system: normal primary NK cells, pool 1 (3 donors), resting (IL-2 0 ng/mL); experiment: as above; conditions: 72 h
NK-92 (IL-2 2.5 ng/mL) [12] = experiment: as above; conditions: 72 h
[13] = system: normal primary NK cells, pool 3 (3 donors) (IL-2 2.5 ng/mL); experiment: as above; conditions: 72 h
[14] = system: normal NK cells expanded with K562-aAPC; experiment: drug sensitivity score (DSS) (DSS units); higher = more sensitive; extreme values may be limits of the assay; conditions: 72 h; IL-2 2.5 ng/mL
Protocol: (§1)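 Drug sensitivity and resistance testing on K562-aAPC-expanded normal NK cells: 5 concentrations (10-fold steps over a 10,000-fold range), 72 h at 37 °C, viability by CellTiter-Glo normalised to DMSO and benzethonium chloride controls; DSS from the fitted curve.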

NKL (IL-2 2.5 ng/mL) [15] = experiment: as above; conditions: 72 h
KAI3 (IL-2 2.5 ng/mL) [16] = experiment: as above; conditions: 72 h
IMC-1 (IL-2 20 ng/mL) [17] = experiment: as above; conditions: 72 h
KHYG-1 (IL-2 2.5 ng/mL) [18] = experiment: as above; conditions: 72 h
SNK-6 (IL-2 2.5 ng/mL) [19] = experiment: as above; conditions: 72 h
DERL-7 (IL-2 2.5 ng/mL) [20] = experiment: as above; conditions: 72 h
[21] = system: normal primary NK cells, pool 1 (3 donors) (IL-2 2.5 ng/mL); experiment: as above; conditions: 72 h
[22] = system: normal primary NK cells, pool 2 (3 donors) (IL-2 2.5 ng/mL); experiment: as above; conditions: 72 h
NK-YS (IL-2 2.5 ng/mL) [23] = experiment: as above; conditions: 72 h
YT (IL-2 2.5 ng/mL) [24] = experiment: as above; conditions: 72 h
[25] = system: normal primary NK cells, pool 1 (3 donors), resting (IL-2 0 ng/mL); experiment: as above; conditions: 72 h
NK-92 (IL-2 2.5 ng/mL) [26] = experiment: as above; conditions: 72 h
[27] = system: normal primary NK cells, pool 3 (3 donors) (IL-2 2.5 ng/mL); experiment: as above; conditions: 72 h
[28] = system: normal NK cells expanded with K562-aAPC; experiment: percent inhibition of viability; higher = more inhibition; conditions: 72 h, IL-2 2.5 ng/mL
Protocol: as §1

CO[C@H]1/C=C\C=C(/C)C(=O)NC2=CC(=O)C(NCCN(C)C)=C(C[C@@H](C)C[C@H](OC)[C@H](O)[C@@H](C)/C=C(\C)[C@@H]1OC(N)=O)C2=O [Alvespimycin] (max concentration tested 1000 nM)
percent inhibition of viability [%]
Conditions | 0.1 nM | 1 nM | 10 nM | 100 nM | 1000 nM
DERL-7 (IL-2 2.5 ng/mL) [6] | -2.47 | -2.74 | 9.85 | 73.2 | 101
IMC-1 (IL-2 20 ng/mL) [3] | -5.23 | 4.85 | 1.66 | 16.1 | 101
KAI3 (IL-2 2.5 ng/mL) [2] | 3.95 | 3.1 | 8.75 | 78.1 | 104
KHYG-1 (IL-2 2.5 ng/mL) [4] | -3.99 | 2.16 | 2.52 | 55.2 | 107
NK-92 (IL-2 2.5 ng/mL) [12] | -5.39 | 0.79 | 7.9 | 62.4 | 105
NK-YS (IL-2 2.5 ng/mL) [9] | -5 | 5.02 | 9.34 | 96.8 | 105
NKL (IL-2 2.5 ng/mL) [1] | -9.27 | 5.22 | 1.11 | 89.3 | 90.7
SNK-6 (IL-2 2.5 ng/mL) [5] | 11.2 | 9.82 | 13.6 | 97.6 | 91.2
YT (IL-2 2.5 ng/mL) [10] | -0.99 | 6.65 | 4.58 | 35.5 | 97
[7] | 9.22 | -0.64 | 16.4 | 73 | 87
[8] | -14.3 | -3.64 | 14.4 | 68.9 | 82.6
[11] | 9.61 | -5.61 | 24.6 | 26.1 | 42
[13] | -14.3 | -9.11 | 6.58 | 46.3 | 85.2
[28] | -6.1 | -4.9 | -1.57 | 67.3 | 100

Conditions | drug sensitivity score
DERL-7 (IL-2 2.5 ng/mL) [20] | 15.1
IMC-1 (IL-2 20 ng/mL) [17] | 8.22
KAI3 (IL-2 2.5 ng/mL) [16] | 15.7
KHYG-1 (IL-2 2.5 ng/mL) [18] | 12.2
NK-92 (IL-2 2.5 ng/mL) [26] | 13.3
NK-YS (IL-2 2.5 ng/mL) [23] | 19.2
NKL (IL-2 2.5 ng/mL) [15] | 16.4
SNK-6 (IL-2 2.5 ng/mL) [19] | 19.9
YT (IL-2 2.5 ng/mL) [24] | 9.86
[14] | 13.3
[21] | 15.5
[22] | 14.8
[25] | 7.28
[27] | 10.3

CC(=O)[C@]1(O)Cc2c(O)c3c(c(O)c2[C@@H](O[C@H]2C[C@H](N)[C@H](O)[C@H](C)O2)C1)C(=O)c1ccccc1C3=O [Idarubicin] (max concentration tested 1000 nM)
percent inhibition of viability [%]
Conditions | 0.1 nM | 1 nM | 10 nM | 100 nM | 1000 nM
DERL-7 (IL-2 2.5 ng/mL) [6] | 5.69 | 7.69 | 65.2 | 100 | 101
IMC-1 (IL-2 20 ng/mL) [3] | -7.47 | -4.02 | 65.8 | 101 | 101
KAI3 (IL-2 2.5 ng/mL) [2] | 12.1 | 20.2 | 75.2 | 88.7 | 108
KHYG-1 (IL-2 2.5 ng/mL) [4] | -9.43 | 1.7 | 74.3 | 108 | 110
NK-92 (IL-2 2.5 ng/mL) [12] | 0.18 | 7.35 | 69.9 | 108 | 109
NK-YS (IL-2 2.5 ng/mL) [9] | -9.65 | -1.39 | 71.5 | 80.4 | 107
NKL (IL-2 2.5 ng/mL) [1] | 5.06 | 19.9 | 101 | 107 | 110
SNK-6 (IL-2 2.5 ng/mL) [5] | -5.01 | -15.7 | 84.5 | 96.8 | 94.4
YT (IL-2 2.5 ng/mL) [10] | -10.7 | -9.01 | -4.8 | 100 | 110
[7] | -4.61 | -3.53 | 21.8 | 96.4 | 98.4
[8] | 6.51 | -1.19 | 51.6 | 94.8 | 97.9
[11] | 11 | 17.1 | 73.4 | 91.3 | 94
[13] | 4.34 | 4.31 | 46.5 | 98 | 100
[28] | 1.32 | -3 | 56.3 | 97.4 | 101

Conditions | drug sensitivity score
DERL-7 (IL-2 2.5 ng/mL) [20] | 26.1
IMC-1 (IL-2 20 ng/mL) [17] | 25.6
KAI3 (IL-2 2.5 ng/mL) [16] | 28.5
KHYG-1 (IL-2 2.5 ng/mL) [18] | 26.5
NK-92 (IL-2 2.5 ng/mL) [26] | 26.8
NK-YS (IL-2 2.5 ng/mL) [23] | 26.4
NKL (IL-2 2.5 ng/mL) [15] | 33.7
SNK-6 (IL-2 2.5 ng/mL) [19] | 27.1
YT (IL-2 2.5 ng/mL) [24] | 17.6
[14] | 24.8
[21] | 20.9
[22] | 23.9
[25] | 27.5
[27] | 23.2

Cc1ccc(NC(=O)c2ccc(CN3CC[C@H](N(C)C)C3)c(C(F)(F)F)c2)cc1Nc1nccc(-c2cncnc2)n1 [Bafetinib] (max concentration tested 1000 nM)
percent inhibition of viability [%]
Conditions | 0.1 nM | 1 nM | 10 nM | 100 nM | 1000 nM
DERL-7 (IL-2 2.5 ng/mL) [6] | -14 | 2.29 | -3.89 | -8.4 | 14.2
IMC-1 (IL-2 20 ng/mL) [3] | -6.49 | -4.43 | -0.85 | 0.31 | 1.78
KAI3 (IL-2 2.5 ng/mL) [2] | 0.47 | 0.29 | 2.91 | 12 | 41.7
KHYG-1 (IL-2 2.5 ng/mL) [4] | -4.48 | -4.63 | 1.74 | 7.43 | 22.3
NK-92 (IL-2 2.5 ng/mL) [12] | -11.6 | -4.05 | 0.45 | 9.61 | 26.8
NK-YS (IL-2 2.5 ng/mL) [9] | -4.77 | -6.95 | -3.78 | -1.77 | 18.9
NKL (IL-2 2.5 ng/mL) [1] | 5.49 | -2.75 | 4.28 | 18 | 50.2
SNK-6 (IL-2 2.5 ng/mL) [5] | -21 | 16.9 | -16.6 | -25.9 | -21.8
YT (IL-2 2.5 ng/mL) [10] | -6.07 | -5.69 | -1.09 | 1.37 | 19.6
[7] | -1.48 | -8.42 | -2.74 | 1.21 | 12
[8] | -9.03 | -9.08 | -6.83 | 2.13 | 11.8
[11] | -11.6 | -4.75 | 5.74 | -0.62 | 2.62
[13] | -3.5 | -5.78 | -5.64 | -5.35 | 13.7
[28] | -3.13 | -5.16 | -2.83 | 2.67 | 30.9

Conditions | drug sensitivity score
DERL-7 (IL-2 2.5 ng/mL) [20] | 0.06
IMC-1 (IL-2 20 ng/mL) [17] | 0
KAI3 (IL-2 2.5 ng/mL) [16] | 3.8
KHYG-1 (IL-2 2.5 ng/mL) [18] | 1.5
NK-92 (IL-2 2.5 ng/mL) [26] | 2.35
NK-YS (IL-2 2.5 ng/mL) [23] | 0.42
NKL (IL-2 2.5 ng/mL) [15] | 4.77
SNK-6 (IL-2 2.5 ng/mL) [19] | 0
YT (IL-2 2.5 ng/mL) [24] | 0.72
[14] | 1.77
[21] | 0.1
[22] | 0.12
[25] | 0
[27] | 0.06

Cc1cc(Nc2cc(N3CCN(C)CC3)nc(/C=C/c3ccccc3)n2)n[nH]1 [ENMD-2076] (max concentration tested 10000 nM)
percent inhibition of viability [%]
Conditions | 1 nM | 10 nM | 100 nM | 1000 nM | 10000 nM
DERL-7 (IL-2 2.5 ng/mL) [6] | -3.97 | 1.55 | 8.93 | 73.3 | 100
IMC-1 (IL-2 20 ng/mL) [3] | 5.76 | 6.97 | 6.68 | 69 | 99.3
KAI3 (IL-2 2.5 ng/mL) [2] | 11.4 | 13.8 | 24.2 | 81.2 | 103
KHYG-1 (IL-2 2.5 ng/mL) [4] | 3.13 | 4.35 | 5.27 | 79.3 | 103
NK-92 (IL-2 2.5 ng/mL) [12] | 11.8 | 8.87 | 7.47 | 52.2 | 100
NK-YS (IL-2 2.5 ng/mL) [9] | 4 | 7.48 | 10.6 | 76.2 | 84.6
NKL (IL-2 2.5 ng/mL) [1] | 2.47 | 5.63 | 17.7 | 61.2 | 96.1
SNK-6 (IL-2 2.5 ng/mL) [5] | 5.5 | 2.27 | -27.8 | 68.5 | 79.8
YT (IL-2 2.5 ng/mL) [10] | 5.28 | 5.36 | 3.17 | 31.5 | 101
[7] | -3.71 | -10.8 | -1.53 | 25 | 93.9
[8] | -1.71 | 3 | 0.94 | 31 | 89.3
[11] | -0.34 | -9.97 | -7.43 | 16.7 | 80.9
[13] | -2.94 | -6.14 | -2.82 | 14.7 | 96.1
[28] | 2.38 | -3.79 | 7 | 60.5 | 99.8

Conditions | drug sensitivity score
DERL-7 (IL-2 2.5 ng/mL) [20] | 15
IMC-1 (IL-2 20 ng/mL) [17] | 14.2
KAI3 (IL-2 2.5 ng/mL) [16] | 18.1
KHYG-1 (IL-2 2.5 ng/mL) [18] | 15.4
NK-92 (IL-2 2.5 ng/mL) [26] | 11.8
NK-YS (IL-2 2.5 ng/mL) [23] | 15.4
NKL (IL-2 2.5 ng/mL) [15] | 14
SNK-6 (IL-2 2.5 ng/mL) [19] | 12.2
YT (IL-2 2.5 ng/mL) [24] | 10.1
[14] | 12.9
[21] | 8.98
[22] | 9.3
[25] | 7.17
[27] | 7.76
